Data as given in ChEMBL document CHEMBL1201862, “PubChem BioAssay data set” (2004).
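Interpolation was linear, between the two tested concentrations surrounding the appropriate level; five concentrations were tested over 48 hours in 96-well plates. At the GI50, growth is halved.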 The source made the active and inactive calls. Rule as the data show it: active = GI50 up to about 1.1 µM and inactive = higher.

Tests used:
Assay in all cases: growth of human tumour cells (NCI), 48 h
MDA-N = system: MDA-N
MCF7 = system: MCF7
DU-145 = system: DU-145
PC-3 = system: PC-3
Hs-578T = system: Hs-578T
XF498 = system: XF498
LXFL 529 = system: LXFL 529
BT-549 = system: BT-549
786-0 = system: 786-0

Measured: GI50

CC(=O)O[C@H]1CN(S(=O)(=O)c2ccc(C)cc2)C[C@@H]1C1CCCCC1
inactive: MDA-N 25.5 µM | MCF7 20.8 µM | DU-145 32.9 µM | PC-3 20.1 µM | Hs-578T 18.9 µM

O=C(Nc1ccc(C(F)(F)F)cc1[N+](=O)[O-])C(=O)Nn1c(S)nc2ccccc2c1=O
inactive: XF498 > 100 µM

Nc1nc(SCCC/C=C/B(O)O)nc2c1ncn2C1OC(CO)C(O)C1O (stereo not drawn)
inactive: XF498 > 243 µM | LXFL 529 > 243 µM

CCO/N=[N+](\[O-])N(CC)CC
inactive: XF498 > 100 µM | LXFL 529 > 100 µM

C=C1C(=O)O[C@H]2C1[C@H](OC(=O)/C(C)=C\COC(C)=O)C[C@]1(CO1)[C@@H]1[C@H](O)[C@H]3O[C@@]3(C)[C@@H]12 (stereo partly drawn)
inactive: XF498 19.3 µM | MCF7 11.5 µM

COc1cc([N+](=O)[O-])ccc1NC(=O)C(F)(F)F
inactive: BT-549 > 100 µM | MDA-N > 100 µM | 786-0 > 100 µM | MCF7 > 100 µM | DU-145 > 100 µM | PC-3 > 100 µM | Hs-578T > 100 µM

COc1ccc(/C(Cl)=C(\C=O)c2ccc(Cl)cc2)cc1OC
inactive: LXFL 529 7.28 µM

CN(Cc1cnc2c(N)nc(N)nc2n1)c1ccc(Cl)cc1
inactive: BT-549 > 100 µM | MDA-N > 100 µM | MCF7 95.5 µM | DU-145 > 100 µM | PC-3 65.5 µM | Hs-578T 33.9 µM

C=C1C(=O)OC2/C=C(\C)CC(O)/C=C(/CO)CC(OC(=O)/C(C)=C/C)C12 (stereo not drawn)
inactive: XF498 12.2 µM | MCF7 21.7 µM
